ChEMBL document CHEMBL5137013 (Eur J Med Chem, 2022)
pIC50: −log10 of the molar value. Activity calls are given as the source filed them. No cut-off for these calls is given here.

Key:
HT-29 [1] = test: Cytotoxicity against human HT-29 cells assessed as reduction in cell viability measured after 24 hrs by MTT assay; type: functional, cell-based; conditions: HT-29, 24 h
MDA-MB-231 = test: Cytotoxicity against human MDA-MB-231 cells assessed as reduction in cell viability measured after 24 hrs by MTT assay; type: functional, cell-based; conditions: MDA-MB-231, 24 h
A549 = test: Cytotoxicity against human A549 cells assessed as reduction in cell viability measured after 24 hrs by MTT assay; conditions: A549, 24 h
HeLa = test: Cytotoxicity against human HeLa cells assessed as reduction in cell viability measured after 24 hrs by MTT assay; type: functional, cell-based
MCF7 = test: Cytotoxicity against human MCF7 cells assessed as reduction in cell viability measured after 24 hrs by MTT assay; conditions: MCF7, 24 h
[2] = AUC in Sprague-Dawley rat at 10 mg/kg, iv by HPLC-MS/MS analysis; type: ADME, organism-based; design: dose 10 mg/kg, route iv; conditions: in vivo
[3] = Cmax in Sprague-Dawley rat at 10 mg/kg, iv by HPLC-MS/MS analysis; type: ADME, organism-based; design: dose 10 mg/kg, route iv; conditions: in vivo
[4] = Resistance index, ratio of IC50 for human MCF7/TxR cells to IC50 for human MCF7 cells; type: functional
[5] = Half-life in Sprague-Dawley rat at 10 mg/kg, iv by HPLC-MS/MS analysis; type: ADME, organism-based; conditions: in vivo
[6] = Resistance index, ratio of IC50 for human A549/TxR cells to IC50 for human A549 cells; type: functional
[7] = Cytotoxicity against human MCF7/TxR cells assessed as reduction in cell viability measured after 24 hrs by MTT assay; type: functional, cell-based
[8] = Tmax in Sprague-Dawley rat at 10 mg/kg, iv by HPLC-MS/MS analysis; type: ADME, organism-based; conditions: in vivo
[9] = Clearance in Sprague-Dawley rat at 10 mg/kg, iv by HPLC-MS/MS analysis; type: ADME, organism-based; conditions: in vivo
[10] = Cytotoxicity against human A549/TxR cells assessed as reduction in cell viability measured after 24 hrs by MTT assay; type: functional, cell-based
HT-29 [11] = test: Antitumor activity against human HT-29 cells xenografted in BALB/c nude mouse assessed as reduction in tumor weight at 10 mg/kg, ip administered as 2 days interval for 3 weeks and measured 3 weeks post-initial dosing relative to control; type: functional; design: scale not given: the % may be the effect or the level left
Sus scrofa = species on record: Sus scrofa; test: […] of porcine brain tubulin polymerization at 5 uM measured at 1 min interval for 60 mins by fluorescence assay
HT-29 [12] = test: Antitumor activity against human HT-29 cells xenografted in BALB/c nude mouse assessed as reduction in tumor weight at 20 mg/kg, ip administered as 2 days interval for 3 weeks and measured 3 weeks post-initial dosing relative to control; type: functional; design: scale not given: the % may be the effect or the level left
[13] = Inhibition of porcine brain tubulin polymerization measured at 1 min interval for 60 mins by fluorescence assay; design: species or system Sus scrofa

Compound | pIC50 (HT-29 [1]) | pIC50 (MDA-MB-231) | pIC50 (A549) | pIC50 (HeLa) | pIC50 (MCF7) | other results
COC(=O)c1cc2c(cc1Nc1ccc3c(c1)OCCO3)OCCO2 | 5.33 | 4.78 | 5.20 | 4.89 | 5.07 | 
COc1cc([C@@H]2c3cc4c(cc3[C@H](O)[C@H]3COC(=O)[C@H]23)OCO4)cc(OC)c1OC [PODOFILOX] | 7.64 | 7.77 | 7.23 | 7.36 | 7.41 | AUC [2]: 2950 µg/L.hr; Cmax [3]: 3530 ng/mL; Ratio IC50 [4]: 1.1; t1/2 [5]: 12.6 min; Ratio IC50 [6]: 1.2; pIC50 [7]: 7.37; Tmax [8]: 6 min; CL [9]: 56.5 mL/min/kg; pIC50 [10]: 7.14
COc1cc(Nc2cc3c(cc2C(=O)NN)OCCO3)cc(OC)c1OC | 6.89 | 6.44 | 6.13 | 6.49 | 6.43 | 
COC(=O)c1cc2c(cc1Nc1cc(OC)c(OC)c(OC)c1)OCO2 | 6.42 | 6.13 | 5.57 | 6.41 | 6.01 | 
COc1ccc(Nc2cc3c(cc2C(=O)NN)OCCO3)cc1 | < 4.70 | < 4.70 | < 4.70 | < 4.70 | < 4.70 | 
COc1cc(C(=O)Nc2cc3c(cc2C(=O)O)OCCO3)cc(OC)c1OC | < 4.70 | < 4.70 | < 4.70 | < 4.70 | < 4.70 | 
COc1c(Br)cc(Nc2cc3c(cc2C(=O)O)OCO3)cc1Br | 5.50 | 5.25 | 4.80 | 5.16 | 4.80 | 
COc1c(F)cc(Nc2cc3c(cc2C(N)=O)OCCO3)cc1F | 6.07 | 5.77 | 5.66 | 5.21 | 4.91 | 
COc1c(Br)cc(Nc2cc3c(cc2C(=O)NN)OCCO3)cc1Br | 6.64 | 6.33 | 5.94 | 6.62 | 6.36 | 
COC(=O)c1cc2c(cc1NC(=O)c1cc(Br)c(OC)c(Br)c1)OCCO2 | < 4.70 | < 4.70 | < 4.70 | < 4.70 | < 4.70 | 
COc1cc2c(c(OC)c1OC)-c1ccc(OC)c(=O)cc1[C@@H](NC(C)=O)CC2 [COLCHICINE] | 6.60 | 7.01 | 7.51 | 8.10 |  | 
NNC(=O)c1cc2c(cc1Nc1ccc3c(c1)OCO3)OCCO2 | 5.99 | < 4.70 | < 4.70 | 5.45 | < 4.70 | 
CC(=O)O[C@H]1C(=O)[C@@]2(C)[C@H]([C@H](OC(=O)c3ccccc3)[C@]3(O)C[C@H](OC(=O)[C@H](O)[C@@H](NC(=O)c4ccccc4)c4ccccc4)C(C)=C1C3(C)C)[C@]1(OC(C)=O)CO[C@@H]1C[C@@H]2O [PACLITAXEL] | 7.96 | 8.15 |  | 7.41 |  | Activity (HT-29 [11]): 77.1%; Activity (Sus scrofa): Active; pIC50 [7]: 5.08; pIC50 [10]: 5.53
COC(=O)c1cc2c(cc1Nc1ccc3c(c1)OCO3)OCCO2 | 5.34 | 5.50 | < 4.70 | 5.26 | 4.95 | 
COC(=O)c1cc2c(cc1Nc1cc(Br)c(OC)c(Br)c1)OCO2 | 5.69 | 4.93 | 5.58 | 5.47 | 5.19 | 
COc1c(F)cc(Nc2cc3c(cc2C(=O)NN)OCCO3)cc1F | 5.88 | 5.23 | 5.92 | 5.59 | 4.81 | 
COC(=O)c1cc(OC)c(OC)cc1Nc1cc(Br)c(OC)c(Br)c1 | < 4.70 | < 4.70 | < 4.70 | < 4.70 | < 4.70 | 

Compound | pIC50 (HT-29 [1]) | pIC50 (MDA-MB-231) | pIC50 (A549) | pIC50 (HeLa) | pIC50 (MCF7) | other results
COC(=O)c1cc2c(cc1NC(=O)c1cc(OC)c(OC)c(OC)c1)OCCO2 | < 4.70 | < 4.70 | < 4.70 | < 4.70 | < 4.70 | 
COC(=O)c1cc2c(cc1Nc1cc(F)c(OC)c(F)c1)OCCO2 | 5.35 | 5.39 | 5.81 | 5.28 | < 4.70 | 
COc1ccc(Nc2cc3c(cc2C(N)=O)OCCO3)cc1OC | 6.07 | < 4.70 | 6.04 | 5.28 | 4.88 | 
COc1c(F)cc(Nc2cc3c(cc2C(=O)NN)OCO3)cc1F | 5.44 | < 4.70 | < 4.70 | 5.23 | < 4.70 | 
COc1cc(Nc2cc3c(cc2C(=O)O)OCO3)cc(OC)c1OC | 5.85 | 5.64 | 5.27 | 5.29 | 4.82 | 
COc1cc(C(=O)Nc2cc3c(cc2C(=O)NN)OCCO3)cc(OC)c1OC | < 4.70 | < 4.70 | < 4.70 | < 4.70 | < 4.70 | 
COC(=O)c1cc2c(cc1Nc1ccc(OC)c(OC)c1)OCCO2 | 6.26 | 5.26 | 6.00 | 5.68 | 4.95 | 
COC(=O)c1cc2c(cc1NC(=O)c1cc(F)c(OC)c(F)c1)OCCO2 | < 4.70 | < 4.70 | < 4.70 | < 4.70 | < 4.70 | 
COc1cc(Nc2cc3c(cc2C(=O)NN)OCO3)cc(OC)c1OC | 6.28 | 5.87 | 5.85 | 5.92 | 5.71 | 
COc1cc(Nc2cc3c(cc2C(=O)O)OCCO3)cc(OC)c1OC | 5.67 | 5.17 | 4.94 | 5.54 | 5.17 | 
COC(=O)c1cc2c(cc1Nc1ccc(OC)cc1)OCCO2 | < 4.70 | < 4.70 | < 4.70 | < 4.70 | < 4.70 | 
COc1c(F)cc(C(=O)Nc2cc3c(cc2C(=O)NN)OCCO3)cc1F | < 4.70 | < 4.70 | < 4.70 | < 4.70 | < 4.70 | 
COc1ccc(/C=C\c2cc(OC)c(OC)c(OC)c2)cc1O [COMBRETASTATIN A4] | 6.37 | 7.89 | 7.34 | 8.15 | 8.05 | Activity (HT-29 [12]): 17.4%; Ratio IC50 [4]: 1.8; Ratio IC50 [6]: 2.1; pIC50 [7]: 7.77; pIC50 [13]: 5.92; pIC50 [10]: 7.02
COC(=O)c1cc(OC)c(OC)cc1Nc1cc(OC)c(OC)c(OC)c1 | < 4.70 | < 4.70 | < 4.70 | < 4.70 | < 4.70 | 
COC(=O)c1cc2c(cc1Nc1cc(Br)c(OC)c(Br)c1)OCCO2 | 5.83 | 5.19 | 5.00 | 5.60 | 5.47 | 
COC(=O)c1cc2c(cc1Nc1cc(F)c(OC)c(F)c1)OCO2 | 5.07 | < 4.70 | < 4.70 | 4.97 | < 4.70 | 
